According to the supplement of paper PMC10307832:

What was measured:
Assay in all cases: relative viability (nuclei count vs DMSO), 5 days (fraction); higher = more cells survive
COR-L23 = test system: COR-L23
Summary of the method: (§1)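 Lung cancer cell lines were pin-tool dosed in 1536-well plates on the day after seeding, with either a lone drug or a fixed anchor-drug dose plus five library-drug doses (not always all listed) in √10 steps. Nuclei were counted on 4× images after 5 days. Relative viability is the ratio of treated-well to vehicle-well nuclei counts, with each value a median of duplicate plates.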

EMC-BAC-2 = test system: EMC-BAC-2
Summary of the method: as §1

EPLC-272H = test system: EPLC-272H
Summary of the method: as §1

H3255 = test system: H3255
Summary of the method: as §1

HCC-44 = test system: HCC-44
Summary of the method: as §1

HCC-827 = test system: HCC-827
Summary of the method: as §1

LCLC-103H = test system: LCLC-103H
Summary of the method: as §1

LU99A = test system: LU99A
Summary of the method: as §1

NCI-H1395 = test system: NCI-H1395
Summary of the method: as §1

NCI-H1563 = test system: NCI-H1563
Summary of the method: as §1

NCI-H1651 = test system: NCI-H1651
Summary of the method: as §1

NCI-H1793 = test system: NCI-H1793
Summary of the method: as §1

NCI-H1944 = test system: NCI-H1944
Summary of the method: as §1

NCI-H2023 = test system: NCI-H2023
Summary of the method: as §1

NCI-H2085 = test system: NCI-H2085
Summary of the method: as §1

NCI-H2087 = test system: NCI-H2087
Summary of the method: as §1

NCI-H2405 = test system: NCI-H2405
Summary of the method: as §1

NCI-H520 = test system: NCI-H520
Summary of the method: as §1

NCI-H650 = test system: NCI-H650
Summary of the method: as §1

NCI-H838 = test system: NCI-H838
Summary of the method: as §1

SK-MES-1 = test system: SK-MES-1
Summary of the method: as §1

O=c1cc(N2CCOCC2)oc2c(-c3cccc4c3sc3ccccc34)cccc12 + C[C@]1(O)C[C@@H](c2nc(-c3ccc4ccc(-c5ccccc5)nc4c3)c3c(N)nccn32)C1 [Linsitinib] (partner 1 µM)
relative viability (COR-L23; first compound 0.01 µM): 0.891 | relative viability (COR-L23; first compound 0.03162 µM): 0.877 | relative viability (COR-L23; first compound 0.1 µM): 1 | relative viability (COR-L23; first compound 0.3162 µM): 0.923 | relative viability (COR-L23; first compound 1 µM): 0.882 | relative viability (EMC-BAC-2; first compound 0.01 µM): 0.822 | relative viability (EMC-BAC-2; first compound 0.03162 µM): 0.867 | relative viability (EMC-BAC-2; first compound 0.1 µM): 0.813 | relative viability (EMC-BAC-2; first compound 0.3162 µM): 0.773 | relative viability (EMC-BAC-2; first compound 1 µM): 0.806 | relative viability (EPLC-272H; first compound 0.01 µM): 0.987 | relative viability (EPLC-272H; first compound 0.03162 µM): 1.17 | relative viability (EPLC-272H; first compound 0.3162 µM): 1.31 | relative viability (EPLC-272H; first compound 1 µM): 1.1 | relative viability (H3255; first compound 0.01 µM): 1 | relative viability (H3255; first compound 0.03162 µM): 0.988 | relative viability (H3255; first compound 0.1 µM): 1.14 | relative viability (H3255; first compound 0.3162 µM): 0.95 | relative viability (H3255; first compound 1 µM): 1.09 | relative viability (HCC-44; first compound 0.01 µM): 0.748 | relative viability (HCC-44; first compound 0.03162 µM): 0.661 | relative viability (HCC-44; first compound 0.1 µM): 0.655 | relative viability (HCC-44; first compound 0.3162 µM): 0.684 | relative viability (HCC-44; first compound 1 µM): 0.584 | relative viability (HCC-827; first compound 0.01 µM): 0.906 | relative viability (HCC-827; first compound 0.03162 µM): 0.977 | relative viability (HCC-827; first compound 0.1 µM): 0.941 | relative viability (HCC-827; first compound 0.3162 µM): 0.941 | relative viability (HCC-827; first compound 1 µM): 0.891 | relative viability (LCLC-103H; first compound 0.01 µM): 1.09 | relative viability (LCLC-103H; first compound 0.03162 µM): 1.04 | relative viability (LCLC-103H; first compound 0.1 µM): 1.03 | relative viability (LCLC-103H; first compound 0.3162 µM): 1.08 | relative viability (LCLC-103H; first compound 1 µM): 0.978 | relative viability (LU99A; first compound 0.01 µM): 0.524 | relative viability (LU99A; first compound 0.03162 µM): 0.628 | relative viability (LU99A; first compound 0.1 µM): 0.589 | relative viability (LU99A; first compound 0.3162 µM): 0.518 | relative viability (LU99A; first compound 1 µM): 0.627 | relative viability (NCI-H1395; first compound 0.01 µM): 1.21 | relative viability (NCI-H1395; first compound 0.03162 µM): 1.11 | relative viability (NCI-H1395; first compound 0.1 µM): 1.03 | relative viability (NCI-H1395; first compound 0.3162 µM): 1.12 | relative viability (NCI-H1395; first compound 1 µM): 1.2 | relative viability (NCI-H1563; first compound 0.01 µM): 1.18 | relative viability (NCI-H1563; first compound 0.03162 µM): 1.21 | relative viability (NCI-H1563; first compound 0.1 µM): 1.19 | relative viability (NCI-H1563; first compound 0.3162 µM): 1.14 | relative viability (NCI-H1563; first compound 1 µM): 1 | relative viability (NCI-H1651; first compound 0.01 µM): 1.1 | relative viability (NCI-H1651; first compound 0.03162 µM): 1.07 | relative viability (NCI-H1651; first compound 0.1 µM): 1.02 | relative viability (NCI-H1651; first compound 0.3162 µM): 1.05 | relative viability (NCI-H1651; first compound 1 µM): 0.912 | relative viability (NCI-H1793; first compound 0.01 µM): 0.809 | relative viability (NCI-H1793; first compound 0.03162 µM): 0.872 | relative viability (NCI-H1793; first compound 0.1 µM): 0.517 | relative viability (NCI-H1793; first compound 0.3162 µM): 0.813 | relative viability (NCI-H1793; first compound 1 µM): 0.68 | relative viability (NCI-H1944; first compound 0.01 µM): 1.16 | relative viability (NCI-H1944; first compound 0.03162 µM): 1.19 | relative viability (NCI-H1944; first compound 0.1 µM): 1.19 | relative viability (NCI-H1944; first compound 0.3162 µM): 1.33 | relative viability (NCI-H1944; first compound 1 µM): 1.16 | relative viability (NCI-H2023; first compound 0.01 µM): 0.735 | relative viability (NCI-H2023; first compound 0.03162 µM): 0.66 | relative viability (NCI-H2023; first compound 0.1 µM): 0.603 | relative viability (NCI-H2023; first compound 0.3162 µM): 0.564 | relative viability (NCI-H2023; first compound 1 µM): 0.557 | relative viability (NCI-H2085; first compound 0.01 µM): 0.983 | relative viability (NCI-H2085; first compound 0.03162 µM): 0.914 | relative viability (NCI-H2085; first compound 0.1 µM): 0.933 | relative viability (NCI-H2085; first compound 0.3162 µM): 0.889 | relative viability (NCI-H2085; first compound 1 µM): 0.821 | relative viability (NCI-H2087; first compound 0.01 µM): 1.04 | relative viability (NCI-H2087; first compound 0.03162 µM): 1.12 | relative viability (NCI-H2087; first compound 0.1 µM): 0.899 | relative viability (NCI-H2087; first compound 0.3162 µM): 0.899 | relative viability (NCI-H2087; first compound 1 µM): 0.985 | relative viability (NCI-H2405; first compound 0.01 µM): 0.972 | relative viability (NCI-H2405; first compound 0.03162 µM): 1.01 | relative viability (NCI-H2405; first compound 0.1 µM): 1.01 | relative viability (NCI-H2405; first compound 0.3162 µM): 0.924 | relative viability (NCI-H2405; first compound 1 µM): 0.955 | relative viability (NCI-H520; first compound 0.01 µM): 1.02 | relative viability (NCI-H520; first compound 0.03162 µM): 1.01 | relative viability (NCI-H520; first compound 0.1 µM): 1.22 | relative viability (NCI-H520; first compound 0.3162 µM): 0.923 | relative viability (NCI-H520; first compound 1 µM): 0.876 | relative viability (NCI-H650; first compound 0.01 µM): 0.794 | relative viability (NCI-H650; first compound 0.03162 µM): 1.03 | relative viability (NCI-H650; first compound 0.3162 µM): 1.14 | relative viability (NCI-H650; first compound 1 µM): 0.679 | relative viability (NCI-H838; first compound 0.01 µM): 1.05 | relative viability (NCI-H838; first compound 0.03162 µM): 1.03 | relative viability (NCI-H838; first compound 0.1 µM): 0.951 | relative viability (NCI-H838; first compound 0.3162 µM): 0.931 | relative viability (NCI-H838; first compound 1 µM): 0.916 | relative viability (SK-MES-1; first compound 0.01 µM): 1.17 | relative viability (SK-MES-1; first compound 0.03162 µM): 1.02 | relative viability (SK-MES-1; first compound 0.1 µM): 1.05 | relative viability (SK-MES-1; first compound 0.3162 µM): 1.09 | relative viability (SK-MES-1; first compound 1 µM): 1.01
